Source: patent US20240415124A1, “HERBICIDAL COMPOSITION CONTAINING 3-(2-CHLORO-4-FLUORO-5-(3-METHYL-2,6-DIOXO-4-TRIFLUOROMETHYL-3,6-DIHYDROPYRIMIDIN-1(2H)-YL)PHENYL)-5-METHYL-4,5-DIHYDROISOXAZOLE-5-CARBOXYLIC ACID ETHYL ESTER AND GLUFOSINATE-P AND USE THEREOF” (NANTONG JIANGSHAN AGROCHEMICAL & CHEMICALS CO., LTD., priority 2022, published 2024)

Test system: Erigeron canadensis
Assay: Laboratory activity determination test (greenhouse pot test, stem and leaf spray, fresh weight inhibition, Gowing method)
Assay type: in vivo
Details: single pesticide
Procedure: (1) Test objective: Inhibitory effects of 3-(2-chloro-4-fluoro-5-(3-methyl-2,6-dioxo-4-trifluoromethyl-3,6-dihydropyrimidin-1(2H)-yl)phenyl)-5-methyl-4,5-dihydroisoxazole-5-carboxylic acid ethyl ester, glufosinate-P and different mixed compositions of the two pesticides on Erigeron canadensis under potting conditions in a greenhouse are determined, and a combined action of the two pesticides is evaluated. […] After a pesticide liquid was air-dried, a test material was placed in a greenhouse for cultivation. […] A method for evaluating the combined action of the two pesticides after compounding was used with reference to a Gowing method in Pesticides Guidelines for Laboratory Bioactivity Tests: Determining Combined Action of Mixtures.
Fresh weight inhibition rate %=(fresh weight of a control group—fresh weight of a treatment group)/fresh weight of a control group*100.
When E-E0 is greater than −10 and less than 10, an additive effect is achieved. When E-E0 is equal to or less than −10, an antagonistic effect is achieved.

Row | Compound | Measured control efficacy E (%) (dosage 8 g a.i./mu) | Measured control efficacy E (%) (dosage 12 g a.i./mu) | Measured control efficacy E (%) (dosage 16 g a.i./mu) | Measured control efficacy E (%) (dosage 20 g a.i./mu) | Measured control efficacy E (%) (dosage 24 g a.i./mu) | Measured control efficacy E (%) (dosage 1 g a.i./mu) | Measured control efficacy E (%) (dosage 2 g a.i./mu) | Measured control efficacy E (%) (dosage 3 g a.i./mu) | Measured control efficacy E (%) (dosage 4 g a.i./mu) | Measured control efficacy E (%) (dosage 5 g a.i./mu)
1 | CP(=O)(O)CC[C@H](N)C(=O)O [Glufosinate-P] | 21.63 | 51.94 | 67.92 | 74.07 | 78.07 | – | – | – | – | –
2 | CCOC(=O)C1(C)CC(c2cc(-n3c(=O)cc(C(F)(F)F)n(C)c3=O)c(F)cc2Cl)=NO1 (stereo not shown) [3-(2-chloro-4-fluoro-5-(3-methyl-2,6-dioxo-4-trifluoromethyl-3,6-dihydropyrimidin-1(2H)-yl)phenyl)-5-methyl-4,5-dihydroisoxazole-5-carboxylic acid ethyl ester] | – | – | – | – | – | 33.82 | 44.46 | 72.89 | 80.22 | 89.09
